Assay results from patent publication US4208410A, “Dibenzo[d,g][1,3,6]dioxazocine derivatives” (priority 1977, dated 1980).
Counter-ions that a name gives are not always drawn. Like-named read-outs stand apart in the source and are kept apart here.

Experiments:
[1] = test system: tremor induced by tremorine; assay: Inhibition of tremor induced by tremorine (Science, 124, 79/1956/); type: in vivo, white mice; conditions: for ED50: Mus musculus, read-out: ED50, inhibition of tremor by tremorine
Protocol: (§1) This activity was tested on white mice, on the basis of the inhibition of tremor induced by tremorine [1,1'-(2-butynylene)-dipyrrolidine] and of nicotine lethality. For comparison Trihexyphenidyl [α-cyclohexyl-α-phenyl-1-piperidinepropanol hydrochloride] and L-DOPA [L-(-)-β-(3,4-dihydroxyphenyl)alanine] are used.

nicotine lethality = assay: animal or person; type: in vivo, white mice; conditions: po; for ED50: Mus musculus, read-out: ED50, inhibition of nicotine lethality; for LD50/ED50, inhibition of nicotine lethality: mouse, in vivo
Protocol: as §1

[2] = Acute toxicity in white mice, peroral; conditions: mouse, in vivo, po, white mice CFLP
Protocol: Acute toxicity of the compounds was tested on white mice from the strain CFLP. Administration was effected perorally.

mice [3] = assay: Local anaesthetic activity (Acta Chirurg. Scand. 116, 351 (1958)); type: in vivo; conditions: for EC50 (concentration at which the local anaesthetic activity amounted to 50%): 0.25% and 0.5% solutions tested; for LD50/EC50: local anaesthetic activity
Protocol: In order to observe the local anaesthetic activity of the instant compounds 0.25% and 0.5% solution thereof were tested following the method described in Acta Chirurg. Scand. 116, 351 (1958). The test animals were mice.

mice [4] = assay: Duration of the local anaesthetic effect; type: in vivo

SMILES | ED50 ([1]; po, white mice) [mg/kg] | LD50/ED50, inhibition of tremor by tremorine ([1]; mouse, in vivo, po) | ED50 (nicotine lethality) [mg/kg] | LD50/ED50, inhibition of nicotine lethality (nicotine lethality) | LD50 [2] [mg/kg] | EC50 (concentration at which the local anaesthetic activity amounted to 50%) (mice [3]) [%] | LD50/EC50 (mice [3]) | Duration of the effect (mice [4]; 0.25% solution) [min] | Duration of the effect (mice [4]; 0.5% solution) [min] | ED50 ([1]; po) [mg/kg] | LD50/ED50, inhibition of tremor by tremorine ([1]; p.o., white mice)
N[C@@H](Cc1ccc(O)c(O)c1)C(=O)O [L-DOPA, L-(-)-β-(3,4-dihydroxyphenyl)alanine, reference compound] | > 500 | < 5 | 500 | < 10 | – | – | – | – | – | – | –
CN(C)CCCN1c2ccccc2OCOc2ccc(Cl)cc21 [Example 3, 2-Chloro-12H-12-(3-dimethylaminopropyl)-dibenzo[d,g][1,3,6]dioxazocine maleinate] | 8 | 95 | 14 | 54 | 760 | 0.15 | 5060 | 71 | 103 | – | –
CN1CCN(CCN2c3ccccc3OCOc3ccc(Cl)cc32)CC1 [Example 7, 2-Chloro-12H-12-[2-(N-methylpiperazino)-ethyl]dibenzo[d,g][1,3,6]dioxazocine dihydrochloride] | 30 | 20 | – | – | 600 | 0.13 | 4600 | 53 | 260 | – | –
Cl.OC(CCN1CCCCC1)(c1ccccc1)C1CCCCC1 (stereo not drawn) [Trihexyphenidyl, α-cyclohexyl-α-phenyl-1-piperidinepropanol hydrochloride, reference compound] | – | – | 80 | – | – | – | – | – | – | 15 | 24
Clc1ccc2c(c1)N(CCN1CCOCC1)c1ccccc1OCO2 [Example 8, 2-Chloro-12H-12-(2-morpholinoethyl)-dibenzo[d,g][1,3,6]dioxazocine maleinate] | – | – | 140 | 14 | > 2000 | – | – | – | – | – | –
Clc1ccc2c(c1)N(CCN1CCCCC1)c1ccccc1OCO2 [Example 5, 2-Chloro-12H-12-(2-piperidinoethyl)-dibenzo[d,g][1,3,6]dioxazocine hydrochloride] | 18 | 38.9 | 60 | 12 | 700 | 0.32 | 2180 | 34 | 65 | – | –
CCN(CC)CC(=O)Nc1c(C)cccc1C [Lidocaine, 2-diethylamino-2',6'-acetoxy-xylidide, reference compound] | – | – | – | – | – | 0.18 | – | 25 | 37 | – | –
CN(C)CCCN1c2cc(Cl)ccc2OCOc2ccc(Cl)cc21 [Example 15, 2,10-Dichloro-12H-12-(3-dimethylaminopropyl)-dibenzo[d,g][1,3,6]dioxazocinemaleinate] | 4.3 | 74.4 | 9 | 35.6 | 320 | – | – | – | – | – | –
Clc1ccc2c(c1)Nc1ccccc1OCO2 [Example 1, 2-Chloro-12H-dibenzo[d,g][1,3,6]dioxazocine] | – | – | – | – | > 2000 | – | – | – | – | – | –
CC(CN(C)C)CN1c2ccccc2OCOc2ccc(Cl)cc21 (stereo not shown) [Example 6, 2-Chloro-12H-12-(2-methyl-3-dimethylaminopropyl)dibenzo[d,g][1,3,6]dioxazocine hydrochloride] | 11 | 25 | – | 25 | 270 | 0.12 | 2250 | 67 | 161 | – | –
